According to patent US9808954B2, “Composition of a timber formulation comprising Cu salts and organic cyclic ingredients for the preservation of timber for decks” (Rutgers Organics GmbH, priority 2014, dated 2017):

Assays:
[1] = tested on: poria placenta; assay: EN113 test after EN84 washing, pine timber, poria placenta; assay type: cell-based
Description: (§1) Timber pieces were positioned in a treating vessel. Over a period of 30 minutes a pressure of 0.1 bar was applied. The treating solution containing a Product was sucked into the vessel. Then the pressure in the vessel was increased to 10 bar at 25° C. for 90 minutes. Afterwards the pressure was set to ambient pressure and the remainder of the treating solution was removed. The impregnated timber pieces were dried at ambient temperature.
(§2) In both tables 13 and 14 the standard applied is EN113. Prior to EN113, the timber was washed according to EN84. The type of timber used was pine.
(§3) Tables 13 and 14 show the average retention of the active ingredient (AI) in Product C when it is exposed to both “poria placenta” (table 13) and “coniophora puteana” (table 14). Comparisons are also made with retention values of DPAB and the azol (triadimefon) in the timber. Average AI retention values are required in order to pass the EN113 Standard.
(§4) In both tables 15 and 16 the standard applied is EN113. Prior to EN113, the timber was washed according to EN84. The type of timber used was pine.
(§5) As for product C, tables 15 and 16 show the average retention of the active ingredient (AI) in Product D when it is exposed to both “poria placenta” (table 15) and “coniophora puteana” (table 16). Comparisons are also made with retention values of DPAB and the azol (cyproconazol) in the timber. […]

[2] = tested on: coniophora puteana; assay: EN113 test after EN84 washing, pine timber, coniophora puteana; assay type: cell-based
Description: as §1, §2, §3, §4, §5

di-decyl-poly-oxethyl-ammoninum borate [DPAB TGAI]
Average DPAB retention in timber ([1]; poria placenta (Table 13)): 4.50 kg/m^3 | Average DPAB retention in timber ([1]; poria placenta (Table 15)): 4.50 kg/m^3 | Average DPAB retention in timber ([2]; coniophora puteana (Table 14)): 7.40 kg/m^3 | Average DPAB retention in timber ([2]; coniophora puteana (Table 16)): 7.40 kg/m^3
